We go through one molecule from US20120289566A1, “COMBINATIONS OF FESOTERODINE AND SALIVARY STIMULANTS FOR THE TREATMENT OF OVERACTIVE BLADDER” (THERAVIDA, INC., priority 2011, published 2012).

Each structure is given as a SMILES string.

For test [1], the system named is saliva flow. Nature of the test: Case study: stimulated saliva output (Parafilm chewing, 2 min) after Toviaz and pilocarpine in a single individual. It is filed as in vivo, human. To be noted: after the administration of 8 mg Toviaz. As for the experimental part:
In this study, the effect of fesoterodine (Toviaz®), pilocarpine, the combination of the two, and placebo was measured in separate, yet identical, studies in a single individual.
The following protocol was for a pilot human study to evaluate the extent of saliva flow rate following the administration of 8 mg Toviaz® capsule and 5 or 7.5 mg pilocarpine HCl tablet after about 2.5 hrs from fesoterodine administration. The subject was a healthy, person. The subject performed the following: • 1. Fast the night before. • 2. No coffee or soda 8 hrs prior to taking the first dose. • 3. Record time voiding and measure urine if possible. • 4. Record extent of dryness of the mouth (Very dry, dry, and not dry). • 5. Record any adverse event. • 6. Chew a 1″×1″ piece of Parafilm (American National Can (Neenah, Wis. 54956) Bar code No. 7-466676999) over 2 minutes. • 7. Collect wetted Parafilm and saliva into a tared container (pre-weighed container). • 8. Measure the amount of saliva collected. • 9. Plot Saliva collected per 2 min time intervals against time.
The subject fasted overnight, but had 240 mL of water 1 hr prior to dose. The water continued ad lib until 1 hr pre and 1 hr post dose, other than 120 mL with Toviaz® and 120 mL with 5 mg Salagen® tablet. For lunch, the subject consumed a light sandwich. No coffee, soda, or caffeinated or alcoholic beverages was consumed.

The test system of test [2] is saliva output. Conditions: 5 mg of pilocarpine; cited from earlier work.

On to `CC[C@@H]1C(=O)OC[C@@H]1Cc1cncn1C` [pilocarpine], for which, in test [1], the “time of pilocarpine administration after Toviaz at which best results are obtained” value fell in the range of 2.3 to 2.5 h. Further, the “time of maximum saliva output after administration” value in test [2] was “about 30 minutes”.
